Measured values as given in patent US4594357A, “Depot antiinflammatory agents” (Troponwerke GmbH & Co., priority 1983, dated 1986).

What was measured:
[1] = test system: oedema of the rat paw induced by carrageenan; assay: carrageenan-induced rat paw oedema (oedema inhibition); assay type: in vivo, rat (male, strain Bor: WISW (SPF-Cpb)); settings: for % Inhibition after depot acid: i.m. 15 mg/kg as an oily solution; for Oedema inhibition: rat
Method: The oedema-inhibiting and analgesic action of the test substances following intramuscular administration of an appropriate depot formulation was determined with the aid of oedema of the rat paw induced by carrageenan or by means of the Randall-Selitto test [Arch. int. Pharmacodyn. 111, 409 (1957)].
The experiments were carried out on male rats [strain: Bor: WISW (SPF-Cpb), weight about 200 g]. A depot product was administered once intramuscularly to the animals and the antiinflammatory action on the following days was tested by inducing carrageenan oedema. In each case three groups or 5 animals each were investigated per day, the first group consisting of 5 untreated animals, the 2nd group of 5 animals treated only with solvent (for example viscoleo) and the 3rd group of 5 animals treated with depot product (for example 2-(2-hydroxyethoxy)-ethyl-N(α,α,α-trifluoro-m-tolyl)anthranilate (formula 11) in viscoleo).
The paw volumes were measured by the method of F. Kemper and G. Ameln [Z. ges. exp. Med. 131, 407 (1959)], the difference between the paw volumes 5 hours after oedema provocation and the normal paw volume giving the oedema volume. The analgesic action was determined via pressure pain [Randall-Selitto, see above].
The inhibition of the carrageenan oedema following intramuscular administration of 2-(2-hydroxyethoxy)-ethyl N-(α,α,α-trifluoro-m-tolyl)-anthranilate (formula 11) in viscoleo after various doses in a constant administration volume of 0.03 ml (rat) is as follows: […]

[2] = biological half-life from the inflamed tissue by gas chromatography; assay type: in vivo; settings: rat, read-out: biological half-life (HL) from the inflamed tissue (converted)
Method: (§1) It was possible to determine the biological half-life (HL) of the compound 11 in rats from the inflamed tissue by means of gas chromatography [H.-D. Dell, J. Fielder, H. Jacobi and J. Kolle, Arzneim.-Forsch./Drug.Res 31, 17-21 (1981)]. The HL from the tissue is about 8.5 hours. In contrast, an HL of 1.29 days is determined for elimination from the tissue (site of administration) following intramuscular administration of 11 in oily solution.

[3] = test system: oedema of the rat paw induced by carrageenan; settings: carrageenan model, cited from earlier work
[4] = half-life for elimination from the tissue (site of administration); assay type: in vivo; settings: tissue at administration site, im; rat, i.m. administration in oily solution; read-out: HL for elimination from the tissue (site of administration) (converted)
Method: as §1

With O=C(O)c1ccccc1Nc1cccc(C(F)(F)F)c1 [formula 1, N--(α,α,α-Trifluoro-m-tolyl)-anthranilic acid] as the compound, how does the “% Inhibition after depot acid” value ([1]; 1 day after injection) read?
Its value is 53.8%.

What about the “% Inhibition after depot acid” value ([1]; 2 days after injection) of the same compound?
Its value is 46.5%.

And the “% Inhibition after depot acid” value ([1]; 3 days after injection)?
Its value is 34.3%.

And the “% Inhibition after depot acid” value ([1]; 4 days after injection)?
Its value is 37.1%.

What about the “% Inhibition after depot acid” value ([1]; 5 days after injection) of the same compound?
The value was 26.8%.

Which results are given for O=C(O)c1cccnc1Nc1cccc(C(F)(F)F)c1 [formula 6, 2-(α,α,α-Trifluoro-m-toluidino)-nicotinic acid]?
% Inhibition after depot acid ([1]; 1 day after injection): 57.0%; % Inhibition after depot acid ([1]; 2 days after injection): 35.2%; % Inhibition after depot acid ([1]; 3 days after injection): 35.5%; % Inhibition after depot acid ([1]; 4 days after injection): 11.5%

With O=C(OCCOCCO)c1ccccc1Nc1cccc(C(F)(F)F)c1 [formula 11, 2-(2-hydroxyethoxy)-ethyl N-(α,α,α-trifluoro-m-tolyl)-anthranilate] as the compound, how does the half-life [2] read?
Its half-life is ~8.5 h.

What about the “duration of oedema inhibition after peroral administration” value ([3]; about 24 hours) of the same compound?
Its value is “corresponds to the control value after about 24 hours”.

What about the “oedema inhibition after peroral administration” value [3] of the same compound?
Its value is “powerful oedema inhibition”.

And the half-life [4]?
The half-life was 31 h.

What about the Oedema inhibition ([1]; 10.5 mg/kg, single i.m., in viscoleo, 1 day after injection) of the same compound?
The Oedema inhibition was 64.0%.

And the Oedema inhibition ([1]; 10.5 mg/kg, single i.m., in viscoleo, 2 days after injection)?
Its Oedema inhibition is 61.1%.

And the Oedema inhibition ([1]; 10.5 mg/kg, single i.m., in viscoleo, 3 days after injection)?
The Oedema inhibition was 36.6%.

What about the Oedema inhibition ([1]; 10.5 mg/kg, single i.m., in viscoleo, 4 days after injection) of the same compound?
The Oedema inhibition was 41.6%.

What about the Oedema inhibition ([1]; 15 mg/kg, single i.m., in viscoleo, 1 day after injection) of the same compound?
Its Oedema inhibition is 77.6%.

And the Oedema inhibition ([1]; 15 mg/kg, single i.m., in viscoleo, 2 days after injection)?
The Oedema inhibition was 72.2%.

What about the Oedema inhibition ([1]; 15 mg/kg, single i.m., in viscoleo, 3 days after injection) of the same compound?
The Oedema inhibition was 55.5%.

What about the Oedema inhibition ([1]; 15 mg/kg, single i.m., in viscoleo, 4 days after injection) of the same compound?
Its Oedema inhibition is 51.3%.

What about the Oedema inhibition ([1]; 19.5 mg/kg, single i.m., in viscoleo, 1 day after injection) of the same compound?
Its Oedema inhibition is 77.6%.

What about the Oedema inhibition ([1]; 19.5 mg/kg, single i.m., in viscoleo, 2 days after injection) of the same compound?
Its Oedema inhibition is 81.3%.

What about the Oedema inhibition ([1]; 19.5 mg/kg, single i.m., in viscoleo, 3 days after injection) of the same compound?
The Oedema inhibition was 61.6%.

What about the Oedema inhibition ([1]; 19.5 mg/kg, single i.m., in viscoleo, 4 days after injection) of the same compound?
The Oedema inhibition was 52.1%.

What does the source list for CCCCOC(=O)c1ccccc1Nc1cccc(C(F)(F)F)c1 [formula 13, butyl N-(α,α,α-trifluoro-m-tolyl)-anthranilate]?
Oedema inhibition ([1]; formula 13 in viscoleo, single i.m. 15 mg/kg, 1 day after administration): 53.8%; Oedema inhibition ([1]; formula 13 in viscoleo, single i.m. 15 mg/kg, 2 days after administration): 46.5%; Oedema inhibition ([1]; formula 13 in viscoleo, single i.m. 15 mg/kg, 3 days after administration): 34.3%; Oedema inhibition ([1]; formula 13 in viscoleo, single i.m. 15 mg/kg, 4 days after administration): 37.1%; Oedema inhibition ([1]; formula 13 in viscoleo, single i.m. 15 mg/kg, 5 days after administration): 28.8%
